Measured values reported in ChEMBL document CHEMBL3244106, “Antidepressant agents. 9. 3,3-Diphenylcyclobutylamines, a new class of central stimulants” (J Med Chem, 1978).
Calls of active or inactive are those of the source. The rule behind the calls is not given here.

Key:
Mus musculus [1] = experiment: Antidepressant activity in NMRI albino mouse assessed as increase in locomotion at 20 mg/kg, ip after 2 hrs relative to vehicle-treated control; assay type: functional, organism-based; set-up: dose 20 mg/kg
Mus musculus [2] = experiment: Antidepressant activity in NMRI albino mouse assessed as hyperactivity by measuring motor excitation at 20 mg/kg, ip after 2 hrs relative to vehicle-treated control; assay type: functional, organism-based; set-up: dose 20 mg/kg
Mus musculus [3] = experiment: Antidepressant activity in NMRI albino mouse assessed as hyperactivity by measuring irritability at 20 mg/kg, ip after 2 hrs relative to vehicle-treated control; assay type: functional, organism-based; set-up: dose 20 mg/kg
Mus musculus [4] = experiment: Antidepressant activity in NMRI albino mouse assessed as hyperactivity by measuring sniffing at 20 mg/kg, ip after 2 hrs relative to vehicle-treated control; assay type: functional, organism-based; set-up: dose 20 mg/kg
Mus musculus [5] = experiment: Antidepressant activity in NMRI albino mouse assessed as hyperactivity by measuring tremor at 20 mg/kg, ip after 2 hrs relative to vehicle-treated control; assay type: functional, organism-based; set-up: dose 20 mg/kg
Mus musculus [6] = experiment: Antidepressant activity in NMRI albino mouse assessed as hyperactivity by measuring rearing at 20 mg/kg, ip after 2 hrs relative to vehicle-treated control; assay type: functional, organism-based; set-up: dose 20 mg/kg
Mus musculus [7] = experiment: Antidepressant activity in NMRI albino mouse assessed as hyperactivity by measuring circling of head at 20 mg/kg, ip after 2 hrs relative to vehicle-treated control; assay type: functional, organism-based; set-up: dose 20 mg/kg
Mus musculus [8] = experiment: Antidepressant activity in NMRI albino mouse assessed as hyperactivity by measuring repetitive movements of head at 20 mg/kg, ip after 2 hrs relative to vehicle-treated control; assay type: functional, organism-based; set-up: dose 20 mg/kg
[9] = target: Sodium-dependent noradrenaline transporter (Mus musculus, UniProt O55192)
Sequence of Sodium-dependent noradrenaline transporter (O55192 whole entry): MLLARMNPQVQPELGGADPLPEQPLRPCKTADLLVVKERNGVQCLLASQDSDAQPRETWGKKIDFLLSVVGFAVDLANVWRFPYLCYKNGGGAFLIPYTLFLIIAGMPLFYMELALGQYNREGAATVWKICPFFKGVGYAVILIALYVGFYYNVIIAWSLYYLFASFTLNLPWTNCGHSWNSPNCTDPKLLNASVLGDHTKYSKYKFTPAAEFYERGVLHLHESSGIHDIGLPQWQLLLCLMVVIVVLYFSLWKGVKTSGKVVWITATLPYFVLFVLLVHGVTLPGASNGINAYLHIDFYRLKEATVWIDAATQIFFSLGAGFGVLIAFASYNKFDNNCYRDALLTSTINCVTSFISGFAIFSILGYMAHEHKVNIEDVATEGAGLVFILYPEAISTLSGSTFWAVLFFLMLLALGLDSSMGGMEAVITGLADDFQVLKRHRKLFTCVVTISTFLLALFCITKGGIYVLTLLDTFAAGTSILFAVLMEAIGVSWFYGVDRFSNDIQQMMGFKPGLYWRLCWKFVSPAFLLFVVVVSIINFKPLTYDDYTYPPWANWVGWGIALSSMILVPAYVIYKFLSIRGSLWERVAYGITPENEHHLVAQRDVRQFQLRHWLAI
Description: Inhibition of noradrenaline transporter in NMRI albino mouse brain assessed as [3H]NA accumulation in hypothalamus after 5 mins

[10] = target: Sodium-dependent serotonin transporter (Mus musculus, UniProt Q60857)
Sequence of Sodium-dependent serotonin transporter (Q60857 whole entry): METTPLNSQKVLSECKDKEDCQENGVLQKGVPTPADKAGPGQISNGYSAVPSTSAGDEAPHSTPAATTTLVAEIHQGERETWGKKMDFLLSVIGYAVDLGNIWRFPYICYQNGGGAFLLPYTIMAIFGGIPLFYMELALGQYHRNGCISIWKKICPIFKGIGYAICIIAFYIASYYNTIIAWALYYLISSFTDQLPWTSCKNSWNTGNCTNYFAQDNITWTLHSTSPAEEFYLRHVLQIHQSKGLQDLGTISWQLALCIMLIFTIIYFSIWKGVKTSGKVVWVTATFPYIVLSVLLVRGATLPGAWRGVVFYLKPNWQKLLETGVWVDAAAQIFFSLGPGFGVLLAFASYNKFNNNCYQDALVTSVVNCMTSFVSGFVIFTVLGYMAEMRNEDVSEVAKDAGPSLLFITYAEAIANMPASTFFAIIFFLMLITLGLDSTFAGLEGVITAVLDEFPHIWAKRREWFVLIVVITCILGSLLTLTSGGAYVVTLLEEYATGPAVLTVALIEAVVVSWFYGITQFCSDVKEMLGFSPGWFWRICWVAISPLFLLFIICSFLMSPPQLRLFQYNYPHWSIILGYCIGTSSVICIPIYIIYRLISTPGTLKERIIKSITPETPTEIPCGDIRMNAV

Mus musculus [11] = organism: Mus musculus
Description: Mydriatic effect in iv dosed NMRI albino mouse assessed as concentration required to increase pupil diameter by 200%

in vivo = conditions: NMRI albino, mouse, iv
Description: Acute toxicity in iv dosed NMRI albino mouse assessed as lethality up to 24 hrs

Mus musculus [12] = organism: Mus musculus; experiment: animal or person; conditions: NMRI, Hypothalamus, ip
Mus musculus [13] = organism: Mus musculus; experiment: animal or person; conditions: NMRI, Hypothalamus, ip; remark: listed apart in the source
Mus musculus [14] = organism: Mus musculus; experiment: animal or person; conditions: NMRI, Hypothalamus, ip; remark: listed apart in the source
Mus musculus [15] = organism: Mus musculus; experiment: animal or person; conditions: NMRI, ip
Mus musculus [16] = experiment: Induction of hyperactivity in NMRI albino mouse at 20 mg/kg, ip in presence of pimozide; assay type: functional, organism-based; set-up: dose 20 mg/kg
Mus musculus [17] = experiment: Induction of hyperactivity in NMRI albino mouse at 20 mg/kg, ip in presence of phenoxybenzamine; assay type: functional, organism-based; set-up: dose 20 mg/kg
Mus musculus [18] = experiment: Induction of hyperactivity in NMRI albino mouse at 20 mg/kg, ip in presence of methergoline; assay type: functional, organism-based; set-up: dose 20 mg/kg
Mus musculus [19] = experiment: Induction of hyperactivity in NMRI albino mouse at 20 mg/kg, ip in presence of reserpine; assay type: functional, organism-based; set-up: dose 20 mg/kg
Mus musculus [20] = experiment: Induction of hyperactivity in NMRI albino mouse at 20 mg/kg, ip in presence of alpha-methyltyrosine; assay type: functional, organism-based; set-up: dose 20 mg/kg

## CNC1CC(c2ccccc2)(c2ccccc2)C1.Cl
Mus musculus [1]
  Activity: Active
Mus musculus [2]
  Activity: Active
Mus musculus [3]
  Activity: Active
Mus musculus [4]
  Activity: Active
Mus musculus [5]
  Activity: Active
Mus musculus [6]
  Activity: Active
Mus musculus [7]
  Activity: Active
Mus musculus [8]
  Activity: Active
[9]
  IC50: 800 nM
[10]
  IC50: 3000 nM
Mus musculus [11]
  PD200: 9 µmol/kg
In vivo
  LD50 at 24 h: 128 µmol/kg
Mus musculus [12]
  ED50: 31 µmol/kg
Mus musculus [13]
  ED50: 95 µmol/kg
Mus musculus [14]
  ED50: 91 µmol/kg
Mus musculus [15]
  ED50: 9 µmol/kg

## CN(C)CCCN1c2ccccc2CCc2ccc(Cl)cc21 [CLOMIPRAMINE]
Mus musculus [11]
  PD200: 6 µmol/kg
In vivo
  LD50 at 24 h: 142 µmol/kg
Mus musculus [12]
  ED50: 109 µmol/kg
Mus musculus [13]
  ED50: 20 µmol/kg
Mus musculus [14]
  ED50: > 113 µmol/kg
Mus musculus [15]
  ED50: 8 µmol/kg

## CN(C)C1CC(c2ccccc2)(c2ccccc2)C1.Cl
Mus musculus [1]
  Activity: Active
Mus musculus [2]
  Activity: Active
Mus musculus [3]
  Activity: Active
Mus musculus [4]
  Activity: Active
Mus musculus [5]
  Activity: Active
Mus musculus [6]
  Activity: Active
Mus musculus [7]
  Activity: Active
Mus musculus [8]
  Activity: Active
Mus musculus [16]
  Activity: inactive
Mus musculus [17]
  Activity: Active
Mus musculus [18]
  Activity: Active
Mus musculus [19]
  Activity: inactive
Mus musculus [20]
  Activity: Active
[9]
  IC50: 800 nM
[10]
  IC50: 900 nM
Mus musculus [11]
  PD200: 24 µmol/kg
In vivo
  LD50 at 24 h: 104 µmol/kg
Mus musculus [12]
  ED50: 32 µmol/kg
Mus musculus [13]
  ED50: 48 µmol/kg
Mus musculus [14]
  ED50: 104 µmol/kg
Mus musculus [15]
  ED50: 17 µmol/kg

## Cl.NC1CC(c2ccccc2)(c2ccccc2)C1
Mus musculus [1]
  Activity: Active
Mus musculus [2]
  Activity: Active
Mus musculus [3]
  Activity: Active
Mus musculus [4]
  Activity: Active
Mus musculus [5]
  Activity: Active
Mus musculus [6]
  Activity: Active
Mus musculus [7]
  Activity: Active
Mus musculus [8]
  Activity: Active
[9]
  IC50: 2200 nM
[10]
  IC50: 2800 nM
Mus musculus [11]
  PD200: 15 µmol/kg
In vivo
  LD50 at 24 h: 192 µmol/kg
Mus musculus [12]
  ED50: 103 µmol/kg
Mus musculus [13]
  ED50: 162 µmol/kg
Mus musculus [14]
  ED50: > 154 µmol/kg
Mus musculus [15]
  ED50: > 38 µmol/kg
